# Measurements from article PMC12431657, “Discovery and mechanistic insights of dibenzoylmethane as a broad spectrum inhibitor of coronavirus” (PLOS Pathogens, 2025).
# Values joined by “and” are separate entries in the source; they are usually repeats but may differ in a detail not shown here. Equal entries are not always repeated.
# How the values were obtained:
# [1] = 1% DBM in the diet, mice; cited from earlier work
# [2] = tested on: HCoV-229E; assay: Antiviral activity in vitro, viral RNA copies by qRT-PCR, HCoV-229E in Huh-7 cells; assay type: cell-based; conditions: for EC50 (229E, Huh-7): inhibition at the concentration: replicates
# [3] = tested on: HCoV-OC43; assay: In vivo efficacy of DBM against HCoV-OC43 in suckling mice (body weight, viral RNA copies, immunofluorescence, H&E); set-up: species or system BALB/c suckling mice; conditions: for Viral RNA copies (log scale), Brain / Viral RNA copies (log scale), Kidney / Viral RNA copies (log scale), Lung / Viral RNA copies (log scale), Spinal Cord: one value per mouse
# Protocol: (§1) Next, we characterized the therapeutic efficacy of the DBM in vivo. In this experiment, randomized 5–6-day-old suckling BALB/c mice were orally treated with DBM at concentrations of 500, 200, and 100 mpk 2 hours after being intranasally challenged with HCoV-OC43. Menstruum and VV116 were used as negative and positive controls, respectively. All the mice were sacrificed on Day 5 for organ and sample collection (Fig 4A). The body weight changes of the mice were continuously monitored during the trial. Infection with HCoV-OC43 led to body weight loss in the vehicle-treated mice on Day 5 (Fig 4B). […] The number of viral RNA copies from the brain, spinal cord, lungs, and kidneys were analysed via qRT-PCR, which targeted the HCoV-OC43 nucleocapsid gene sequence. On Day 5, the number of viral RNA copies in the vehicle-treated group reached approximately 10^12 copies in the brain, 10^9 copies in the spinal cord, 10^8 copies in the lungs, and 10^6 copies in the kidney (Fig 4C). In the mice treated with DBM at 500 mpk, the number of viral RNA copies within these organs and tissues was reduced by 1–3 logs compared with the vehicle-treated group. […] Sections of mouse brains, spinal cords, lungs, and kidneys were subjected to immunofluorescence staining with antibodies targeting HCoV-OC43 nucleocapsid proteins.
# (§2) Fig 4 In vivo antiviral efficacy of DBM in 5-day-old BALB/c suckling mice infected with HCoV-OC43. A) Schematic of the experimental design for evaluating DBM in suckling mice. Each group consisted of 5-6 suckling mice. The schematic was created by the authors using Adobe Illustrator 2022. B) Body weight changes of mice during the experiment. Body weights were recorded daily and all mice were euthanised on the fifth day after infection. C) Viral RNA copies in the brains, spinal cords, lungs, and kidneys of mice collected on Day 5. After grinding and centrifuging the samples with DMEM, viral copies from the supernatants were tested by qRT-PCR. D) Viral titres in homogenised organs and tissues collected from mice on Day 5. E) Immunofluorescence staining of brain and lung sections from mice treated with different regimens. HCoV-OC43 nucleocapsid proteins were detected by immunofluorescence (green). Cell nuclei were stained with DAPI (blue). Data were statistically analyzed with Student’s T test. *: p ≤ 0.05, **: p ≤ 0.01, ***: p ≤ 0.001, ****: p ≤ 0.0001; ns, not significant. The experiments were repeated three times independently with similar results. […] No numeric values are printed in any panel, and nothing was read off the bars, points or curves.
# BALB/c mice were maintained and bred in a specific-pathogen-free (SPF) environment at the Laboratory Animal Center of Wuhan Institute of Virology, CAS. Pregnant mice with the same expected delivery date were acclimated in individually ventilated cages under standard conditions within an SPF environment. Food and water were available ad libitum. The mice were anaesthetized by isoflurane inhalation before any operation that may have caused potential discomfort. Before the experiment, suckling mice were randomly allocated into 6 distinct groups, namely, the healthy group, the vehicle group, the groups receiving DBM at 500 mg/kg (mpk) orally quaque die (QD), 200 mpk QD, and 100 mpk QD, and the group receiving VV116 at 25 mpk orally QD. Each group was comprised of 5–6 suckling mice. On the initiation day (Day 0) of the experiment, 5–6-day-old BALB/c suckling mice were intranasally infected with 1 × 10^4 TCID50 of HCoV-OC43. Two hours postinoculation, the mice were orally treated with either a placebo or varying doses of the drugs on the basis of their respective groupings as outlined earlier. This oral treatment regimen was continued for several days. The body weight changes of the mice were monitored daily. On Day 5, all the mice in each group were sacrificed for virological and histopathological analyses. […]
# [4] = tested on: HCoV-OC43; assay: Immunoplaque assay, viral titres of organs and tissues of infected mice; assay type: in vivo, BALB/c suckling mice
# Protocol: as §1, §2
# RD cells were preseeded onto 24-well plates and incubated at 37 °C for 24 hours until they reached 90% confluence. The supernatants from the homogenized organs and tissues were serially diluted 10-fold in DMEM. Subsequently, 50 μL of each dilution was added to the wells. Following a 1-hour incubation at 37 °C, the inoculum was removed, and 200 μL of overlay medium (DMEM containing 2% FBS and 1.5% carboxymethyl cellulose) was added to the wells. Four days postinfection, the cells were fixed with 4% paraformaldehyde for 2 hours, followed by three washes with phosphate-buffered saline (PBS). The fixed cells were then permeabilized with 0.5% Triton X-100 for 30 minutes and blocked with 5% bovine serum albumin (BSA) for 30 minutes at room temperature. The cells were subsequently incubated with anti-HCoV-OC43 nucleocapsid protein rabbit serum (ABclonal, SA00001–2) as the primary antibody and HRP-conjugated anti-rabbit IgG (Proteintech) as the secondary antibody, followed by staining with a DAB staining kit (TIANGEN, PA110).
smiles,measurement,setting,value
"O=C(CC(=O)c1ccccc1)c1ccccc1 [DBM, dibenzoylmethane]",safety of feeding in the diet,[1],safe
same,EC50,"[2]; Human coronavirus 229E, Huh-7, 24 h, read-out: EC50 HCoV-229E (Huh-7)",6.71 µM
same,"EC50 (229E, Huh-7): inhibition at the concentration",[2]; conc. 0.1 (unit not given),60.8 and 22.3 and 20.2
same,"EC50 (229E, Huh-7): inhibition at the concentration",[2]; conc. 0.2 (unit not given),25.5 and 35.2
same,"EC50 (229E, Huh-7): inhibition at the concentration",[2]; conc. 0.7 (unit not given),37.7 and 44.1
same,"EC50 (229E, Huh-7): inhibition at the concentration",[2]; conc. 2.2 (unit not given),13.1 and 6.1 and 18.7
same,"EC50 (229E, Huh-7): inhibition at the concentration",[2]; conc. 6.7 (unit not given),65 and 69.4 and 38.7
same,"EC50 (229E, Huh-7): inhibition at the concentration",[2]; conc. 20 (unit not given),91.1 and 94.4 and 99.5
same,"Viral RNA copies (log scale), Brain","[3]; DBM 100 mpk oral QD, Day 5",10.75 and 11.25 and 9.46 and 11.43 and 10.91 and 11.34
same,"Viral RNA copies (log scale), Kidney","[3]; DBM 100 mpk oral QD, Day 5",4.46 and 4.97 and 5.51 and 4.16 and 5.82 and 6.00
same,"Viral RNA copies (log scale), Lung","[3]; DBM 100 mpk oral QD, Day 5",5.86 and 6.10 and 6.32 and 5.21 and 6.78 and 7.01
same,"Viral RNA copies (log scale), Spinal Cord","[3]; DBM 100 mpk oral QD, Day 5",6.20 and 7.58 and 5.38 and 6.52 and 6.60 and 6.93
same,"Viral RNA copies (log scale), Brain","[3]; DBM 200 mpk oral QD, Day 5",11.00 and 7.97 and 8.87 and 10.9 and 11.19
same,"Viral RNA copies (log scale), Kidney","[3]; DBM 200 mpk oral QD, Day 5",3.29 and 5.31 and 4.03 and 3.52 and 4.72
same,"Viral RNA copies (log scale), Lung","[3]; DBM 200 mpk oral QD, Day 5",5.84 and 6.05 and 5.32 and 4.74 and 6.24
same,"Viral RNA copies (log scale), Spinal Cord","[3]; DBM 200 mpk oral QD, Day 5",7.21 and 4.77 and 4.18 and 5.72 and 5.07
same,weight loss during the experiment,"[3]; DBM 500, 200, 100 mpk, VV116 25 mpk",did not experience weight loss
same,"Viral RNA copies (log scale), Brain","[3]; DBM 500 mpk oral QD, Day 5",7.30 and 7.20 and 10.02 and 9.11
same,"Viral RNA copies (log scale), Kidney","[3]; DBM 500 mpk oral QD, Day 5",5.15 and 4.76 and 4.30 and 4.17
same,"Viral RNA copies (log scale), Lung","[3]; DBM 500 mpk oral QD, Day 5",6.62 and 5.77 and 7.8 and 5.49
same,"Viral RNA copies (log scale), Spinal Cord","[3]; DBM 500 mpk oral QD, Day 5",7.86 and 7.12 and 7.13 and 6.92
same,reduction of viral RNA copies in organs and tissues compared with the vehicle-treated group,"[3]; DBM 500 mpk, Day 5, brain, spinal cord, lungs, kidneys",1–3 logs
same,Body weight (Fig4B),"[3]; Diben-100mpk, day 0, individual mice, 100 mg/kg",106.0 and 99.6 and 102.4 and 92.2 and 88.6 and 111.2
same,Body weight (Fig4B),"[3]; Diben-100mpk, day 1, individual mice, 100 mg/kg",104.0 and 113.7 and 124.8 and 125.0 and 120.9 and 107.3
same,Body weight (Fig4B),"[3]; Diben-100mpk, day 2, individual mice, 100 mg/kg",129.4 and 142.0 and 134.3 and 116.8 and 125.0 and 145.3
same,Body weight (Fig4B),"[3]; Diben-100mpk, day 3, individual mice, 100 mg/kg",151.0 and 158.2 and 143.3 and 162.5 and 135.0 and 139.2
same,Body weight (Fig4B),"[3]; Diben-100mpk, day 4, individual mice, 100 mg/kg",155.1 and 164.8 and 182.5 and 163.5 and 153.3 and 179.2
same,Body weight (Fig4B),"[3]; Diben-100mpk, day 5, individual mice, 100 mg/kg",154.0 and 147.9 and 188.2 and 194.1
same,Body weight (Fig4B),"[3]; Diben-200mpk, day 0, individual mice, 200 mg/kg",111.2 and 88.7 and 105.9 and 107.7 and 103.2 and 83.4
same,Body weight (Fig4B),"[3]; Diben-200mpk, day 1, individual mice, 200 mg/kg",125.7 and 104.5 and 114.6 and 120.1 and 114.8 and 89.2
same,Body weight (Fig4B),"[3]; Diben-200mpk, day 2, individual mice, 200 mg/kg",114.8 and 130.4 and 137.3 and 125.5 and 125.0 and 98.5
same,Body weight (Fig4B),"[3]; Diben-200mpk, day 3, individual mice, 200 mg/kg",132.4 and 107.4 and 150.4 and 128.4 and 109.9 and 143.8
same,Body weight (Fig4B),"[3]; Diben-200mpk, day 4, individual mice, 200 mg/kg",124.4 and 149.1 and 155.3 and 166.7 and 150.7 and DIED
same,Body weight (Fig4B),"[3]; Diben-200mpk, day 5, individual mice, 200 mg/kg",132.2 and 156.0 and 162.7 and 162.5 and 153.8
same,Body weight (Fig4B),"[3]; Diben-500mpk, day 0, individual mice, 500 mg/kg",97.8 (2×) and 95.2 (2×) and 111.0 and 103.1
same,Body weight (Fig4B),"[3]; Diben-500mpk, day 1, individual mice, 500 mg/kg",118.9 and 116.3 and 111.0 and 105.7 (2×) and 124.2
same,Body weight (Fig4B),"[3]; Diben-500mpk, day 2, individual mice, 500 mg/kg",145.4 and 111.0 and 129.5 (2×) and 97.8 and 116.3
same,Body weight (Fig4B),"[3]; Diben-500mpk, day 3, individual mice, 500 mg/kg",118.9 and 169.2 and 132.2 and 108.4 and 102.6 and 148.0
same,Body weight (Fig4B),"[3]; Diben-500mpk, day 4, individual mice, 500 mg/kg",150.7 and DIED (2×) and 187.7 and 103.1 and 161.2
same,Body weight (Fig4B),"[3]; Diben-500mpk, day 5, individual mice, 500 mg/kg",100.4
same,viral loads by immunofluorescence staining of organ sections,[3]; HCoV-OC43 nucleocapsid protein,reduced the viral loads
same,damage caused by viral infection in brain and lung sections (H&E),[3]; oral DBM,significantly reduced the damage
same,Viral load in tissue (Fig4D),"[4]; Brain, group G3 DIBEN100, individual mice",2.4E+06 and 2.9E+06 and 1.6E+06 and 1.9E+06 and 2.5E+06 and 2.3E+06
same,Viral load in tissue (Fig4D),"[4]; Brain, group G4 DIBEN200, individual mice",2.4E+05 and 2.9E+05 and 1.6E+05 and 2.0E+05 and 2.5E+05
same,Viral load in tissue (Fig4D),"[4]; Brain, group G5 DIBEN500, individual mice",5.0E+01 and 0.0E+00 and 3.1E+03
same,viral titres of the organs and tissues,[4]; DBM 500 mpk,led to a reduction in viral loads
same,Viral load in tissue (Fig4D),"[4]; Kidney, group G3 DIBEN100, individual mice",229.9 and 104.0 and 219.4 and 123.5 and 219.8 and 790.8
same,Viral load in tissue (Fig4D),"[4]; Kidney, group G4 DIBEN200, individual mice",0.0
same,Viral load in tissue (Fig4D),"[4]; Kidney, group G5 DIBEN500, individual mice",84.6 and 0.0
same,Viral load in tissue (Fig4D),"[4]; Lung, group G3 DIBEN100, individual mice",0.0 and 160.4 and 76.7 and 2219.2 and 1455.2
same,Viral load in tissue (Fig4D),"[4]; Lung, group G4 DIBEN200, individual mice",275.5 and 0.0 and 394.7
same,Viral load in tissue (Fig4D),"[4]; Lung, group G5 DIBEN500, individual mice",0.0 and 290.3
same,Viral load in tissue (Fig4D),"[4]; Spinal Cord, group G3 DIBEN100, individual mice",1299.4 and 4131.1 and 125.4 and 477.6 and 568.4 and 1615.1
same,Viral load in tissue (Fig4D),"[4]; Spinal Cord, group G4 DIBEN200, individual mice",7747.0 and 4670.7 and 4797.6 and 4510.0 and 4954.8
same,Viral load in tissue (Fig4D),"[4]; Spinal Cord, group G5 DIBEN500, individual mice",0.0 and 113.9
